Several values for one entry are separate records, joined by “and”; a condition that tells them apart may be missing. Identical values can stand only once. Numbers after ± are expanded uncertainties.
Tests used:
[1] = 101 kPa, Liquid; for mass density: Vibrating tube method
[2] = xn = mol fraction of the nth substance listed; conditions: 101 kPa, Liquid, x2 = 0; for mass density: Vibrating tube method

Structure (SMILES) | viscosity ([1]; 308.15 K) [mPa·s] | mass density ([1]; 308.15 K) [kg/m3] | viscosity ([1]; 313.15 K) | mass density ([1]; 313.15 K) [kg/m3] | mass density ([1]; 318.15 K) [kg/m3] | mass density ([2]; 308.15 K) [kg/m3] | viscosity ([2]; 308.15 K) [mPa·s] | mass density ([2]; 313.15 K) [kg/m3] | viscosity ([2]; 313.15 K) [mPa·s]
c1ccccc1 [benzene] | 0.5272 ± 0.0098 | 862.9 ± 0.2 | 0.4942 ± 0.0093 mPa·s | 857.7 ± 0.2 | – | – | – | – | –
C1CCCCCCC1 [cyclooctane] | 1.803 ± 0.029 | 823.6 ± 0.2 | 1.636 ± 0.027 mPa·s | 819.7 ± 0.2 | – | – | – | – | –
CCc1ccccc1 [ethylbenzene] | 0.5652 ± 0.01 | 853.7 ± 0.2 | 0.5294 ± 0.0099 mPa·s | 849.5 ± 0.2 | 849.5 ± 0.2 | – | – | – | –
CCCCCCC [heptane] | 0.3497 ± 0.0071 | 671.3 ± 0.3 | 0.3329 ± 0.0069 mPa·s | 667.1 ± 0.3 | – | – | – | – | –
Cc1ccccc1 [toluene] | 0.494 ± 0.0093 | 852.8 ± 0.2 | 0.4676 ± 0.0089 mPa·s and 0.4755 ± 0.009 mPa·s | 848.3 ± 0.2 | 848.3 ± 0.2 | – | – | – | –
Cc1ccccc1 [toluene] + c1ccccc1 | – | – | – | – | – | 852.8 ± 0.2 | 0.494 ± 0.0093 | 848.3 ± 0.2 | 0.4676 ± 0.0089

Source: the NIST ThermoML archive (doi:10.1007/s10765-009-0667-2)
